According to ChEMBL document CHEMBL5316350, “Novel Pyrido[2',1':2,3]imidazo[4,5-c]quinoline Derivative Selectively Poisons Leishmania donovani Bisubunit Topoisomerase 1 to Inhibit the Antimony-Resistant Leishmania Infection in Vivo” (J Med Chem, 2023):
Activity calls are given as the source filed them. The calls are words filed in the database; no cut-off is given here.

Experiments:
[1] = target: T1, DNA topoisomerase I (Leishmania donovani (strain BPK282A1)) (UniProt E9BRC0); assay: Binding affinity to antimony resistant Leishmania donovani BHU575 promastigotes recombinant topoisomerase I assessed as fold change in stabilization of cleavage complex at 5 to 50 uM measured after 30 mins relative to camptothecin; conditions: dose 5-50 µM
T1 sequence (whole entry): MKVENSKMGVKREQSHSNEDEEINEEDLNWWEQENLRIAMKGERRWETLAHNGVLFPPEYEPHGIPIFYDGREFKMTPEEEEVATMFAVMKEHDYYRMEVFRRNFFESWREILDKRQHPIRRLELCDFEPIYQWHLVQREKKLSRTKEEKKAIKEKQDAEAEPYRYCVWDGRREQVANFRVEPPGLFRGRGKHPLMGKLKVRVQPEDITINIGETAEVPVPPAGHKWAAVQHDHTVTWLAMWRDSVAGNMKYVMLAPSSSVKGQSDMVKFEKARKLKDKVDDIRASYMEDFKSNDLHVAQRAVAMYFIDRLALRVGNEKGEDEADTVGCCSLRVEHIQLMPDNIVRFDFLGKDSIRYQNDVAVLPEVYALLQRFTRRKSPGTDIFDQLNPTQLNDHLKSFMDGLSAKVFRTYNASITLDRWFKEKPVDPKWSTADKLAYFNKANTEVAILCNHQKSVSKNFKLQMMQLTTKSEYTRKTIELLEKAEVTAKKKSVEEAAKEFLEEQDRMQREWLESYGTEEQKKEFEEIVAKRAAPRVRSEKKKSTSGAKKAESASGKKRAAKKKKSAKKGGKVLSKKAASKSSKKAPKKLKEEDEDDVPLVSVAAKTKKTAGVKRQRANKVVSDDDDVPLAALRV

Leishmania donovani [2] = assay: Induction of cell cycle arrest in Leishmania donovani Ag83 promastigotes assessed as decrease in accumulation of cells in G2/M phase at 5 uM measured after 24 hrs by PI staining based flow cytometry (reference value: 15.1 %); type: functional; set-up: scale not given: the % may be the effect or the level left
Leishmania donovani [3] = assay: Antileishmanial activity against Leishmania donovani Ag83 promastigotes infected in BALB/c mouse assessed as reduction of amastigote burden by measuring parasite count in liver treated after 3 weeks of infection at 5 to 10 mg/kg, ip twice a week for 3 weeks by qPCR based kineto-plastid DNA; type: functional, organism-based; conditions: dose 5-10 mg/kg
Leishmania donovani [4] = assay: Antileishmanial activity against Leishmania donovani Ag83 amastigotes infected in BALB/c mouse macrophage assessed as cell viability measured after 48 hrs infection by propidium iodide staining analysis relative to control; type: functional, organism-based; conditions: Ag83, 48 h
[5] = target: T1, DNA topoisomerase I (Leishmania donovani (strain BPK282A1)); assay: Inhibition of Leishmania donovani recombinant Top1 preincubated with compound for 5 mins followed by plasmid DNA addition at 1 to 10 uM measured after 30 mins; conditions: dose 1-10 µM
Leishmania donovani [6] = assay: Antileishmanial activity in Leishmania donovani Ag83 promastigotes assessed as fold change in persistent Top1cc-induced DNA breakdown by measuring TUNEL positive cells treated for 6 to 12 hrs followed by compound removal measured after 6 to 12 hrs by confocal microscopic analysis relative to camptothecin; type: functional; conditions: time 6-12 hrs
Leishmania donovani [7] = assay: Antileishmanial activity against antimony resistant Leishmania donovani BHU575 promastigotes infected in BALB/c mouse assessed as reduction of macrophage at 10 uM measured after 96 hrs infection by propidium iodide staining analysis relative to control; type: functional; set-up: scale not given: the % may be the effect or the level left
DNA topoisomerase I = target: T2, DNA topoisomerase I (Leishmania donovani (strain BPK282A1), UniProt E9BRC0); assay: Inhibition of Leishmania donovani Top1 assessed as relaxation of supercoiled pBluescript SK(+) DNA measured by agarose gel electrophoresis analysis
T2 sequence (E9BRC0 whole entry): T1 sequence (whole entry)

Leishmania donovani [8] = assay: Antileishmanial activity against Leishmania donovani Ag83 promastigotes infected in BALB/c mouse assessed as reduction of macrophage at 1 to 10 uM infection by propidium iodide staining analysis; type: functional, organism-based; conditions: dose 1-10 µM, time 72-96 hrs, TDE = time-dependent effect
[9] = target: T3, DNA topoisomerase 1 (Homo sapiens) (UniProt P11387); assay: Inhibition of human recombinant Top1 assessed as stabilization of clevage complex upto 100 uM measured after 30 mins
T3 sequence (whole entry): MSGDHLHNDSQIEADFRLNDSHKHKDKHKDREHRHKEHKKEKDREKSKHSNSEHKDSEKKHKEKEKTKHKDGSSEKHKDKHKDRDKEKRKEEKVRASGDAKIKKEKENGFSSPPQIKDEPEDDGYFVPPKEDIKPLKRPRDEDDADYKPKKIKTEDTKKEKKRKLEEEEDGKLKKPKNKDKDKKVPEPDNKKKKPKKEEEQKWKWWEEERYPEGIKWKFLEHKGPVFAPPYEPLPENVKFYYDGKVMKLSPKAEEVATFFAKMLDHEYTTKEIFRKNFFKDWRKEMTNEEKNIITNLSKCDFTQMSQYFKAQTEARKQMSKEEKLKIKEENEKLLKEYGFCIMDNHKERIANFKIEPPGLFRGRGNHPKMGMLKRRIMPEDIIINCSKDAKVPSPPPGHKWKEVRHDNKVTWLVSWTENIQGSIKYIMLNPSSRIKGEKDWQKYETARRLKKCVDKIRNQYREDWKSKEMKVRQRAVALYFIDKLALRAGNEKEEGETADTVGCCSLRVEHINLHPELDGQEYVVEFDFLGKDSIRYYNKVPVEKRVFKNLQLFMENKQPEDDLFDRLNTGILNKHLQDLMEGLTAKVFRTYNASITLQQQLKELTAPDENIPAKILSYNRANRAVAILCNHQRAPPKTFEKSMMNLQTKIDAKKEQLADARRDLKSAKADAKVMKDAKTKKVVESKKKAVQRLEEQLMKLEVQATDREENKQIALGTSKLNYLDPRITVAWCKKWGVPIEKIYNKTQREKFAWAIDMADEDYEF

[10] = target: T1, DNA topoisomerase I (Leishmania donovani (strain BPK282A1)); assay: Inhibition of Leishmania donovani recombinant Top1 assessed as relaxation of supercoiled pBluescript SK(+) DNA at 5 uM incubated for 30 mins by agarose gel electrophoresis analysis relative to control
HEK293 = assay: Potency index ratio of test compound IC50 to camptothecin IC50 for cytotoxicity against HEK293 cells; type: functional, Homo sapiens
Leishmania donovani [11] = assay: Reversal of Top1cc-induced DNA breakdown in Leishmania donovani Ag83 promastigotes by measuring TUNEL positive cells treated for 6 to 12 hrs followed by compound removal measured after 6 to 12 hrs by confocal microscopic analysis relative to camptothecin; type: functional, organism-based; conditions: time 6-12 hrs
Leishmania donovani [12] = assay: Induction of cell cycle arrest in Leishmania donovani Ag83 promastigotes assessed as decrease in accumulation of cells in G2/M phase at 5 uM measured after 12 hrs by PI staining based flow cytometry (reference value: 15.1 %); type: functional; set-up: scale not given: the % may be the effect or the level left
Leishmania donovani [13] = assay: Induction of cell cycle arrest in antimony resistant Leishmania donovani BHU575 promastigotes assessed as decrease in accumulation of cells in S phase at 5 uM measured after 24 hrs by PI staining based flow cytometry (reference value: 9.8%); type: functional; set-up: scale not given: the % may be the effect or the level left
Leishmania donovani [14] = assay: Antileishmanial activity against Leishmania donovani Ag83 promastigotes infected in BALB/c mouse assessed as reduction of amastigote burden by measuring parasite count in blood treated after 3 weeks of infection at 5 to 10 mg/kg, ip twice a week for 3 weeks by qPCR based kineto-plastid DNA; type: functional, organism-based; conditions: dose 5-10 mg/kg
[15] = Toxicity in BALB/c mouse infected with Antimony resistant Leishmania donovani BHU575 promastigotes assessed as change in body weight treated after 3 weeks of infection at 5 to 10 mg/kg, ip twice a week for 3 weeks; type: organism-based; conditions: in vivo, dose 5-10 mg/kg

With COc1cc(-c2nc3ccccc3c3nc4ccccn4c23)cc(OC)c1OC the fold change (FC) [1] was 5, the Activity (Leishmania donovani [2]) was 34.2% and the Activity (Leishmania donovani [3]) was “Active”. For the same molecule, the EC50 (Leishmania donovani [4]) was 2.5 µM, the inhibition [5] was “inactive” and the “fold change (FC)” value (Leishmania donovani [6]) was 3. For the same molecule, the Activity (Leishmania donovani [7]) was 90%, the IC50 (DNA topoisomerase I) was 3.75 µM and the Activity (Leishmania donovani [8]) was “Tde”. The inhibition [9] was “inactive”, the inhibition [10] was 85% and the “Ratio IC50” value (HEK293) was 90. The Activity (Leishmania donovani [11]) was “inactive”, the Activity (Leishmania donovani [12]) was 14.5% and the Activity (Leishmania donovani [13]) was 22.3%. The Activity (Leishmania donovani [14]) was “Active” and the Activity [15] was “Non-Toxic”.
